Test results published in patent US6737383B1, “Herbicidal oxadiazolidines” (priority 1999, dated 2004).

Experiments:
[1] = tested on: bedstraw; experiment: Test B pre/postemergence bedstraw; format: in vivo, Galium aparine
Method in brief: (§1)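 Response is a visual 0-to-10 score relative to untreated plants, where 0 means no effect and 10 means complete control, taken twelve to sixteen days after application. Treatments went onto soil at planting and onto foliage of 1- to 4-leaf plants, using a surfactant-containing non-phytotoxic solvent.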

[2] = tested on: rape; experiment: Test B pre/postemergence rape; format: in vivo, Brassica napus
Method in brief: as §1

[3] = tested on: sugar beet; experiment: Test B pre/postemergence sugar beet; format: in vivo, Beta vulgaris; settings: for Plant response rating, Sugarbeets: Rate 250 g/ha
Method in brief: as §1

[4] = tested on: surinam grass; experiment: Test B pre/postemergence surinam grass; format: in vivo, Brachiaria decumbens
Method in brief: as §1

[5] = tested on: morningglory; experiment: Test B pre/postemergence morningglory; format: in vivo, Ipomoea hederacea
Method in brief: as §1

[6] = tested on: blackgrass; experiment: Test B pre/postemergence blackgrass; format: in vivo, Alopecurus myosuroides
Method in brief: as §1

[7] = tested on: duck salad; experiment: Test B flood test duck salad; format: in vivo, Heteranthera limosa
Method in brief: (§2)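 Flood test on plants grown to the 2-leaf stage; treated plants kept in greenhouse twelve to sixteen days, then visually rated against controls on a 0 (no effect) to 10 (complete control) scale.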

[8] = tested on: giant foxtail; experiment: Test B pre/postemergence giant foxtail; format: in vivo, Setaria faberii
Method in brief: as §1

[9] = tested on: rice; experiment: Test B flood test rice; format: in vivo, Oryza sativa
Method in brief: as §2

[10] = tested on: velvetleaf; experiment: Test B pre/postemergence velvetleaf; format: in vivo, Abutilon theophrasti; settings: for Plant response rating, Velvetleaf: Rate 250 g/ha
Method in brief: as §1

[11] = tested on: purple nutsedge; experiment: Test B pre/postemergence purple nutsedge; format: in vivo, Cyperus rotundus
Method in brief: as §1

[12] = tested on: bamyardgrass; experiment: Test B flood test barnyardgrass; format: in vivo, Echinochloa crus-galli
Method in brief: as §2

[13] = tested on: smallflower flatsedge; experiment: Test B flood test smallflower flatsedge; format: in vivo, Cyperus difformis
Method in brief: as §2

[14] = tested on: soybean; experiment: Test B pre/postemergence soybean; format: in vivo, Glycine max
Method in brief: as §1

[15] = tested on: pigweed; experiment: Test B pre/postemergence pigweed; format: in vivo, Amaranthus retroflexus
Method in brief: as §1

[16] = tested on: corn; experiment: Test B pre/postemergence corn; format: in vivo, Zea mays
Method in brief: as §1

[17] = Postemergence, Rate 62 g/ha, scale 0 to 10, 0 is no effect, 10 is complete control
[18] = Postemergence, Rate 250 g/ha, scale 0 to 10, 0 no effect, 10 complete control
[19] = Preemergence, Rate 62 g/ha, scale 0 to 10 (0 no effect, 10 complete control)
[20] = Preemergence, Rate 125 g/ha, scale 0 to 10 (0 no effect, 10 complete control)
[21] = Preemergence, Rate 250 g/ha, scale of 0 to 10 where 0 is no effect and 10 is complete control
[22] = Preemergence, Rate 500 g/ha, scale 0 to 10 (0 no effect, 10 complete control)
[23] = Rate 125 g/ha, Postemergence, scale 0 to 10, 0 no effect, 10 complete control
[24] = Rate 500 g/ha, Postemergence, scale 0 to 10, 0 no effect, 10 complete control
[25] = Postemergence, Rate 125 g/ha, scale of 0 to 10 where 0 is no effect and 10 is complete control
[26] = Rate 62 g/ha, Postemergence, scale of 0 to 10 where 0 is no effect and 10 is complete control
[27] = Preemergence, Rate 125 g/ha, 0 is no effect, 10 is complete control
[28] = Preemergence, scale of 0 to 10 where 0 is no effect and 10 is complete control
[29] = Postemergence, scale 0 to 10, 0 is no effect, 10 is complete control
[30] = Rate 250 g/ha, headed Pre-emergence (flood test species), scale 0 to 10 (0 no effect, 10 complete control)
[31] = Rate 500 g/ha, headed Pre-emergence (flood test species), scale 0 to 10 (0 no effect, 10 complete control)
[32] = Rate 1000 g/ha, Pre-emergence (as headed), scale 0 to 10
[33] = Rate 2000 g/ha, Pre-emergence (as headed), scale 0 to 10
[34] = Rate 250 g/ha, Postemergence, scale 0 to 10, 0 is no effect, 10 is complete control

CCn1c(=O)on(C(=O)N(c2ccc(F)cc2)C(C)C)c1=O [Compound 107]
4: Bedstraw plant response rating [1, 18] | Sugarbeets plant response rating [3, 19] | Velvetleaf plant response rating [10, 26] | Soybean plant response rating [14, 25] | Plant response rating, Soybean [14, 34] | Corn plant response rating [16, 19]
7: Plant response rating, Bedstraw [1, 20] | Sugarbeets plant response rating (0 to 10 scale) [3, 27] | Sugarbeets plant response rating [3, 24] | B. signalgrass plant response rating [4, 17] | Plant response rating, B. signalgrass [4, 20] | B. signalgrass plant response rating [4, 23] | Morningglory plant response rating [5, 22] | Blackgrass plant response rating [6, 25] | Blackgrass plant response rating [6, 26] | Velvetleaf plant response rating [10, 19] | Velvetleaf plant response rating [10, 24] | Plant response rating, Corn [16, 20]
10: Plant response rating, Bedstraw [1, 21] | Bedstraw plant response rating [1, 22] | Rape plant response rating [2, 22] | Plant response rating, Sugarbeets [3, 28] | Sugarbeets plant response rating [3, 22] | Plant response rating, B. signalgrass [4, 21] | B. signalgrass plant response rating [4, 22] | Plant response rating, Blackgrass [6, 20] | Plant response rating, Blackgrass [6, 21] | Blackgrass plant response rating [6, 22] | Giant foxtail plant response rating [8, 19] | Plant response rating, Giant foxtail [8, 20] | Plant response rating, Giant foxtail [8, 21] | Giant foxtail plant response rating [8, 22] | Velvetleaf plant response rating (0 to 10 scale) [10, 27] | Plant response rating, Velvetleaf [10, 28] | Velvetleaf plant response rating [10, 22] | Redroot pigweed plant response rating [15, 19] | Plant response rating, Redroot pigweed [15, 20] | Plant response rating, Redroot pigweed [15, 21] | Redroot pigweed plant response rating [15, 22]
3: Bedstraw plant response rating [1, 23] | Rape plant response rating [2, 18] | Rape plant response rating [2, 19] | Morningglory plant response rating [5, 25] | Morningglory plant response rating [5, 18] | Morningglory plant response rating [5, 26] | Morningglory plant response rating [5, 24] | Nutsedge plant response rating [11, 25] | Nutsedge plant response rating [11, 26] | Plant response rating, Soybean [14, 20] | Soybean plant response rating [14, 26]
9: Bedstraw plant response rating [1, 24] | Plant response rating, Rape [2, 21] | Blackgrass plant response rating [6, 19] | Plant response rating, Corn [16, 21] | Corn plant response rating [16, 22]
8: Plant response rating, Rape [2, 20] | Rape plant response rating [2, 24] | B. signalgrass plant response rating [4, 18] | B. signalgrass plant response rating ([4]; Rate 500 g/ha, Postemergence, scale of 0 to 10 where 0 is no effect and 10 is complete control) | Blackgrass plant response rating [6, 18] | Blackgrass plant response rating [6, 24] | Giant foxtail plant response rating [8, 25] | Giant foxtail plant response rating [8, 18] | Giant foxtail plant response rating [8, 26] | Giant foxtail plant response rating [8, 24] | Soybean plant response rating [14, 22] | Redroot pigweed plant response rating [15, 24]
6: Nutsedge plant response rating [11, 22] | Nutsedge plant response rating [11, 24] | Corn plant response rating [16, 24]
0: Rape plant response rating [2, 26] | Sugarbeets plant response rating [3, 26] | Morningglory plant response rating [5, 19] | Plant response rating, Morningglory [5, 20] | Ducksalad plant response rating [7, 30] | Plant response rating, Ducksalad [7, 31] | Ducksalad plant response rating [7, 32] | Ducksalad plant response rating [7, 33] | Rice plant response rating [9, 30] | Plant response rating, Rice [9, 31] | Rice plant response rating [9, 32] | Rice plant response rating [9, 33] | Nutsedge plant response rating [11, 19] | Plant response rating, Nutsedge [11, 20] | Barnyardgrass plant response rating [12, 30] | Plant response rating, Barnyardgrass [12, 31] | Barnyardgrass plant response rating [12, 32] | Barnyardgrass plant response rating ([12]; Rate 2000 g/ha, Pre-emergence (as headed), scale 0 to 10, 0 no effect, 10 complete control) | S. Flatsedge plant response rating ([13]; Pre-emergence, Rate 1000 g/ha, scale 0 to 10 (0 no effect, 10 complete control)) | S. Flatsedge plant response rating [13, 30] | Plant response rating, S. Flatsedge [13, 31] | Soybean plant response rating [14, 19] | Redroot pigweed plant response rating [15, 25] | Redroot pigweed plant response rating [15, 26]
5: Plant response rating, Sugarbeets [3, 29] | B. signalgrass plant response rating [4, 19] | Velvetleaf plant response rating [10, 25] | Plant response rating, Velvetleaf [10, 29] | Nutsedge plant response rating [11, 18] | S. Flatsedge plant response rating [13, 33] | Plant response rating, Soybean [14, 21] | Soybean plant response rating [14, 24] | Plant response rating, Redroot pigweed [15, 34] | Corn plant response rating [16, 18]
2: Bedstraw plant response rating [1, 17] | Bedstraw plant response rating [1, 19] | Rape plant response rating [2, 25] | Sugarbeets plant response rating [3, 25] | Plant response rating, Morningglory [5, 21] | Plant response rating, Nutsedge [11, 21] | Corn plant response rating [16, 25] | Corn plant response rating [16, 26]
